Data taken from BindingDB's records for doi:10.1016/j.chembiol.2005.02.004 (Purdue University, 2005).
Numbered stars: 1 amine (or outer) side, 2 acyl side, 3 side chain; on linkers, the order of the positions; unused ones are H or OH. Bridge positions count the residues as written; N and C are the ends. Square brackets hold non-standard residues; d marks the D form. Peptide text beside a SMILES is read from it. I, II: the chains in the order shown. * marks the point of attachment. C16 diacid = O=C(O)CCCCCCCCCCCCCCC(=O)*; X1 = NC(O)C[C@H](N[*:1])C(=O)[*:2]

Biological target: T1, Capsid scaffolding protein (Human herpesvirus 1 (strain 17), UniProt P10210)
T1 sequence (P10210 whole entry): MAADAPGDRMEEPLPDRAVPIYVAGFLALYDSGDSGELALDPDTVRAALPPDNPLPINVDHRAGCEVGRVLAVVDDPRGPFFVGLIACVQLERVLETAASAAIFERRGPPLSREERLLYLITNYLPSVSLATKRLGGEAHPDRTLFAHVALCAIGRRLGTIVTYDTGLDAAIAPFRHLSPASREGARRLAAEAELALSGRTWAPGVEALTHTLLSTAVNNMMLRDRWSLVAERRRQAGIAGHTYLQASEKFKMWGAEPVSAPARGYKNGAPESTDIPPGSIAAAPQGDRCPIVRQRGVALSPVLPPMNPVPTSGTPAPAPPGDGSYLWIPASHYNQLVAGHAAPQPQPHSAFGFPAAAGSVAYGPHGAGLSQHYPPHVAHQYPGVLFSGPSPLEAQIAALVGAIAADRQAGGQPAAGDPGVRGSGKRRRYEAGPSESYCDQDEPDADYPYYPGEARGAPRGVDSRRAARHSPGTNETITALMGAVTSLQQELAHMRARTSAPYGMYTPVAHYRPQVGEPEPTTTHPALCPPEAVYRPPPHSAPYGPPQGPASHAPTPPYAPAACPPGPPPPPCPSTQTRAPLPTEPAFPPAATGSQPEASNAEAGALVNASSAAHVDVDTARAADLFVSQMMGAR
Assay: Competitive Assay
Settings: pH 5.52
Excerpt: The competitive assay requires two inhibitors to act by a purely competitive mechanism, whereas the binding site of on the inhibitors has been established.

`CC(C)C[C@H](NC(=O)[C@@H](NC(=O)CCCCCCCCCCCCCCC(=O)N[C@H](CC(N)=O)C(=O)N[C@H](Cc1ccccc1)C(=O)O)C(C)O)C(=O)N[C@@H](Cc1ccccc1)C(N)=O` (stereo partly specified) [Pepstatin analog, 2] and `CC(C)C[C@H](NC(=O)[C@@H](NC(=O)CCCCCCCCCCCCCCC(=O)N[C@H](CC(N)=O)C(=O)N[C@@H](Cc1ccccc1)C(=O)O)C(C)O)C(=O)NCCc1ccccc1` (stereo partly specified) [Pepstatin analog, 3] are within 1.5-fold of each other in IC50: 5.9 µM for the first, 5.8 µM for the second.

Compared with `CC[C@H](C)[C@H](NC(=O)[C@H](CCC(N)=O)NC(=O)[C@@H]1CCCN1C(=O)CCCCCCCCCCCCCCC(=O)N[C@@H](CO)C(=O)N[C@H](C(=O)N[C@H](C(=O)N[C@@H](CC(N)O)C(=O)N[C@@H](Cc1ccccc1)C(=O)O)C(C)C)[C@@H](C)O)C(=O)N[C@H](C(=O)N[C@@H](CC(C)C)C(=O)N[C@@H](Cc1c[nH]c2ccccc12)C(=O)O)[C@@H](C)O` (stereo partly specified) [Pepstatin analog, 1] (I: PQITLW-OH / II: STV[X1]F-OH; linker I:N-II:N via C16 diacid), `COc1cccc(CCNC(=O)[C@@H](CC(C)C)NC(=O)[C@H](NC(=O)CCCCCCCCCCCCCCC(=O)N[C@H](CC(N)=O)C(=O)N[C@@H](Cc2ccccc2)C(=O)O)C(C)O)c1` (stereo partly specified) [Pepstatin analog, 5] is 14-fold higher in IC50: 0.35 µM for the first, 4.9 µM for the second.

For `CC(C)C[C@@H](NC(=O)[C@H](NC(=O)CCCCCCCCCCCCCCC(=O)N[C@H](CC(N)=O)C(=O)N[C@@H](Cc1ccccc1)C(=O)O)C(C)O)C(=O)NCCc1cccc(O)c1` (stereo partly specified) [Pepstatin analog, 4], the IC50 was 4.4 µM.

Going from `CC(C)C[C@H](NC(=O)[C@@H](NC(=O)CCCCCCCCCCCCCCC(=O)N[C@H](CC(N)=O)C(=O)N[C@H](Cc1ccccc1)C(=O)O)C(C)O)C(=O)N[C@@H](Cc1ccccc1)C(N)=O` (stereo partly specified) [Pepstatin analog, 2] to `CC(C)C[C@@H](NC(=O)[C@H](NC(=O)CCCCCCCCCCCCCCC(=O)N[C@H](CC(N)=O)C(=O)N[C@@H](Cc1ccccc1)C(=O)O)C(C)O)C(=O)NCCc1cccc(O)c1` (stereo partly specified) [Pepstatin analog, 4], the Ki falls from 3 µM to 1.13 µM (2.7-fold). The second binds more tightly here.

First: CC[C@H](C)[C@H](NC(=O)[C@H](CCC(N)=O)NC(=O)[C@@H]1CCCN1C(=O)CCCCCCCCCCCCCCC(=O)N[C@@H](CO)C(=O)N[C@H](C(=O)N[C@H](C(=O)N[C@@H](CC(N)O)C(=O)N[C@@H](Cc1ccccc1)C(=O)O)C(C)C)[C@@H](C)O)C(=O)N[C@H](C(=O)N[C@@H](CC(C)C)C(=O)N[C@@H](Cc1c[nH]c2ccccc12)C(=O)O)[C@@H](C)O (stereo partly specified) [Pepstatin analog, 1] (I: PQITLW-OH / II: STV[X1]F-OH; linker I:N-II:N via C16 diacid)
Second: COc1cccc(CCNC(=O)[C@@H](CC(C)C)NC(=O)[C@H](NC(=O)CCCCCCCCCCCCCCC(=O)N[C@H](CC(N)=O)C(=O)N[C@@H](Cc2ccccc2)C(=O)O)C(C)O)c1 (stereo partly specified) [Pepstatin analog, 5]
The Ki of the first is 5.9-fold lower: 0.22 µM for the first, 1.29 µM for the second.

Biological target: T1, Capsid scaffolding protein
Assay: Zhang-Poorman Assay
Settings: pH 5.52

First: COc1ccc(CCNC(=O)[C@@H](CC(C)C)NC(=O)[C@H](NC(=O)CCCCCCCCCCCCCCC(=O)N[C@H](CC(N)=O)C(=O)N[C@@H](Cc2ccccc2)C(=O)O)C(C)O)cc1OC (stereo partly specified) [Pepstatin analog, 9]
Second: COc1ccc(CCNC(=O)[C@@H](CC(C)C)NC(=O)[C@H](NC(=O)CCCCCCCCCCCCCCC(=O)N[C@H](CC(N)=O)C(=O)N[C@@H](Cc2ccccc2)C(=O)O)C(C)O)cc1 (stereo partly specified) [Pepstatin analog, 7]
The IC50 of the first is 1.6-fold higher: 4.3 µM for the first, 2.7 µM for the second.

First: CC(C)C[C@@H](NC(=O)[C@H](NC(=O)CCCCCCCCCCCCCCC(=O)N[C@H](CC(N)=O)C(=O)N[C@@H](Cc1ccccc1)C(=O)O)C(C)O)C(=O)NCCc1ccc(Oc2ccccc2)cc1 (stereo partly specified) [Pepstatin analog, 11]
Second: CC(C)C[C@@H](NC(=O)[C@H](NC(=O)CCCCCCCCCCCCCCC(=O)N[C@H](CC(N)=O)C(=O)N[C@@H](Cc1ccccc1)C(=O)O)C(C)O)C(=O)NCCc1ccc(Oc2ccc(O)cc2)cc1 (stereo partly specified) [Pepstatin analog, 12]
The IC50 of the first is 2-fold higher: 0.73 µM for the first, 0.36 µM for the second. The second is the more potent here.

Going from `CC(C)C[C@@H](NC(=O)[C@H](NC(=O)CCCCCCCCCCCCCCC(=O)N[C@H](CC(N)=O)C(=O)N[C@@H](Cc1ccccc1)C(=O)O)C(C)O)C(=O)NCCc1ccc(N)cc1` (stereo partly specified) [Pepstatin analog, 10] to `CC(C)C[C@@H](NC(=O)[C@H](NC(=O)CCCCCCCCCCCCCCC(=O)N[C@H](CC(N)=O)C(=O)N[C@@H](Cc1ccccc1)C(=O)O)C(C)O)C(=O)NCCc1ccc(O)cc1` (stereo partly specified) [Pepstatin analog, 6], the IC50 rises from 2.5 µM to 5.8 µM (2.3-fold).

`CC(C)C[C@@H](NC(=O)[C@H](NC(=O)CCCCCCCCCCCCCCC(=O)N[C@H](CC(N)=O)C(=O)N[C@@H](Cc1ccccc1)C(=O)O)C(C)O)C(=O)NCCc1ccc(O)c(O)c1` (stereo partly specified) [Pepstatin analog, 8] gave an IC50 of 2.9 µM.

First: CC(C)C[C@@H](NC(=O)[C@H](NC(=O)CCCCCCCCCCCCCCC(=O)N[C@H](CC(N)=O)C(=O)N[C@@H](Cc1ccccc1)C(=O)O)C(C)O)C(=O)NCCc1ccc(Oc2ccccc2)cc1 (stereo partly specified) [Pepstatin analog, 11]
Second: CC(C)C[C@@H](NC(=O)[C@H](NC(=O)CCCCCCCCCCCCCCC(=O)N[C@H](CC(N)=O)C(=O)N[C@@H](Cc1ccccc1)C(=O)O)C(C)O)C(=O)NCCc1ccc(Oc2ccc(O)cc2)cc1 (stereo partly specified) [Pepstatin analog, 12]
The Ki of the first is 1.8-fold higher: 0.175 µM for the first, 0.096 µM for the second.

`CC(C)C[C@@H](NC(=O)[C@H](NC(=O)CCCCCCCCCCCCCCC(=O)N[C@H](CC(N)=O)C(=O)N[C@@H](Cc1ccccc1)C(=O)O)C(C)O)C(=O)NCCc1ccc(N)cc1` (stereo partly specified) [Pepstatin analog, 10] and `COc1ccc(CCNC(=O)[C@@H](CC(C)C)NC(=O)[C@H](NC(=O)CCCCCCCCCCCCCCC(=O)N[C@H](CC(N)=O)C(=O)N[C@@H](Cc2ccccc2)C(=O)O)C(C)O)cc1` (stereo partly specified) [Pepstatin analog, 7] are within 1.5-fold of each other in Ki: 0.65 µM for the first, 0.72 µM for the second.

Work on `CC(C)C[C@@H](NC(=O)[C@H](NC(=O)CCCCCCCCCCCCCCC(=O)N[C@H](CC(N)=O)C(=O)N[C@@H](Cc1ccccc1)C(=O)O)C(C)O)C(=O)NCCc1ccc(O)c(O)c1` (stereo partly specified) [Pepstatin analog, 8] yielded a Ki of 0.6 µM.
